Among the data in patent US10765764B2, “Probes for imaging huntingtin protein” (CHDI Foundation, Inc., priority 2015, dated 2020) are IC50 values, retold here.

Bounds are passed on as bounds.

In the assay the target is T1, Q46 protein aggregates (Homo sapiens, UniProt P42858).
T1 construct: fused on or other part: An N-terminal GST tag, cleaved off with thrombin before the assay to trigger aggregation
T1 sequence (P42858 with tags, fused parts or gaps with the stated changes, form open): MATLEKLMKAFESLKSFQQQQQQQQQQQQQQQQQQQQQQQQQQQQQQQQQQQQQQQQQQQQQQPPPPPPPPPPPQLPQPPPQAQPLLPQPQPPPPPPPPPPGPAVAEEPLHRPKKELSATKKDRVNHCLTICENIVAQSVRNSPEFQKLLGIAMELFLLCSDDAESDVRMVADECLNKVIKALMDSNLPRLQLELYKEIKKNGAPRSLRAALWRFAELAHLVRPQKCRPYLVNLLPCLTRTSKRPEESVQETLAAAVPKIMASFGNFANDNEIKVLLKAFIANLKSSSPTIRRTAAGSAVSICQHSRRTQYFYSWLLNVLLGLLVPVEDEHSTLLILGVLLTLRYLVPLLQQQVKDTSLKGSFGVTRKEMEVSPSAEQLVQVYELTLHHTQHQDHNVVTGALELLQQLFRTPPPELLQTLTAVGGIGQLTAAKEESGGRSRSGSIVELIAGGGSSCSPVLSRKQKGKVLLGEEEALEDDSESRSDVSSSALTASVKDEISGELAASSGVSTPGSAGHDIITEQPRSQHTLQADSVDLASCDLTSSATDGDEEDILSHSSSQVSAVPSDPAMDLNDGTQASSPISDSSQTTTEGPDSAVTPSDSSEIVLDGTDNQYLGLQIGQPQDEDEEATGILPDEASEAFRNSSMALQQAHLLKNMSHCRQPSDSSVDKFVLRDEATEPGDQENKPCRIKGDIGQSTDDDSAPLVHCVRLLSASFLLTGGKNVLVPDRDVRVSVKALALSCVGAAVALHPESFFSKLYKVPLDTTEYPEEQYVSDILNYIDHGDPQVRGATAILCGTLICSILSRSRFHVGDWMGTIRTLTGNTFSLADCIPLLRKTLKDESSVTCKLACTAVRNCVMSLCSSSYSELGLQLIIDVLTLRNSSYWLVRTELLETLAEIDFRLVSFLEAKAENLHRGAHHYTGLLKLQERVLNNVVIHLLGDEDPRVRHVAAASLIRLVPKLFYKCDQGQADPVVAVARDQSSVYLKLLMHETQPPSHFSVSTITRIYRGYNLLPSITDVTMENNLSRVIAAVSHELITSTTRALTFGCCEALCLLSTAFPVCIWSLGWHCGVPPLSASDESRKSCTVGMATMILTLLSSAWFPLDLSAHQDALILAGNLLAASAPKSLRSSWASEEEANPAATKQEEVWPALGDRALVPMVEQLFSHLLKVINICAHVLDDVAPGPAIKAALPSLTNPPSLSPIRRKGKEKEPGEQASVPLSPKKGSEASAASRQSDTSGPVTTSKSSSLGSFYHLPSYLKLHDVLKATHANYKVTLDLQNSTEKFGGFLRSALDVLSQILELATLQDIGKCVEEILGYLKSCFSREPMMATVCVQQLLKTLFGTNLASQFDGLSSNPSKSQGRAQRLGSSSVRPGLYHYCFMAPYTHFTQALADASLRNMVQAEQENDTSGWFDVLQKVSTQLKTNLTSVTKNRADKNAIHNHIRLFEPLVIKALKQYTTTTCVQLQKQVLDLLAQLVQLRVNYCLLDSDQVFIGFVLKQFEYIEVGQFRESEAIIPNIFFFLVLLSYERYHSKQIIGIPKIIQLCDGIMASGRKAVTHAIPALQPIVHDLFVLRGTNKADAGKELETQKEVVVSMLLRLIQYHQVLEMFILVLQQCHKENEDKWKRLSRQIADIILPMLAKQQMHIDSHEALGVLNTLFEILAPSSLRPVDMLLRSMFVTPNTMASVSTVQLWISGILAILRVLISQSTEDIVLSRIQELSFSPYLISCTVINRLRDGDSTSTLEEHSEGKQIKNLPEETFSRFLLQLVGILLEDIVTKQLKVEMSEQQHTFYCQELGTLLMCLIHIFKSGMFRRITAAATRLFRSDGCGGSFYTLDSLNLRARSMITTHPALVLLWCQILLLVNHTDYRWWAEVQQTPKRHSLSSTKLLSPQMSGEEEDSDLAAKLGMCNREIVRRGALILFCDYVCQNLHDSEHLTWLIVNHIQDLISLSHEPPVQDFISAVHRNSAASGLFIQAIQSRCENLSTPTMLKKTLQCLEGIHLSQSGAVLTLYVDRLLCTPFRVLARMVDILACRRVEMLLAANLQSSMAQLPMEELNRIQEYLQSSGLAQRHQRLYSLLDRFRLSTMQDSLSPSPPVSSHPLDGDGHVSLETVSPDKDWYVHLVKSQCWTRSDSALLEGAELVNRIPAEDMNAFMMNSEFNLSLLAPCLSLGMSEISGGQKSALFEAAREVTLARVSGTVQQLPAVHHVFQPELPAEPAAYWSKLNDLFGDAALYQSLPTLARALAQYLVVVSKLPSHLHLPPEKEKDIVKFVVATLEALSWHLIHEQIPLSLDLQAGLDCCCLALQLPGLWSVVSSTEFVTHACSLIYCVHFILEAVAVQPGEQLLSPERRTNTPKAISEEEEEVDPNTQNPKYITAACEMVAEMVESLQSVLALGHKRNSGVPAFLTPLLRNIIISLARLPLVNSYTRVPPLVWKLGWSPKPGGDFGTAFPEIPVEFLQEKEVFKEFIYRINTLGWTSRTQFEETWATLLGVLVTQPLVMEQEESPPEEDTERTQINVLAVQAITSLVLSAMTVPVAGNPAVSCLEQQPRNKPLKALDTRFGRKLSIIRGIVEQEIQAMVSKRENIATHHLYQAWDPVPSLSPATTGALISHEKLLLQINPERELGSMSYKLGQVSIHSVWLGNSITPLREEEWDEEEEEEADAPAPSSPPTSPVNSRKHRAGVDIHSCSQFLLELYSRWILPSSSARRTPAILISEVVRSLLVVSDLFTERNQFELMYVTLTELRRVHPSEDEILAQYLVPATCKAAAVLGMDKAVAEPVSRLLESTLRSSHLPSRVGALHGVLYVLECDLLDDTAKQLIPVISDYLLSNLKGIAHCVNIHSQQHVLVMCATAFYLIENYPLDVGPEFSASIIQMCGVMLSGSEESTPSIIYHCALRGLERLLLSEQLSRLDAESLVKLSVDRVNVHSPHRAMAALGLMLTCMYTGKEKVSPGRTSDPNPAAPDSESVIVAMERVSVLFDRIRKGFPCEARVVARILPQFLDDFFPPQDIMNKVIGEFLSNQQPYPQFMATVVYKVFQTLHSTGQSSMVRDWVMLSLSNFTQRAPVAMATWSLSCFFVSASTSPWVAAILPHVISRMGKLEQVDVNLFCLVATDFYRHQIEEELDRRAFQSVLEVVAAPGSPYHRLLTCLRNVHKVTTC
Nature of the assay: Q46 Radioligand Binding Assay (RBA), displacement of [^3H3]MK-3328. To be noted: 10 nM [^3H3]MK-3328, 5 μM Q46 protein aggregates. As to the method:
For radioligand binding assays (RBA) GST-Q46 protein was generated based on a previous publication (Scherzinger et al. Cell, Vol. 90, 549-558, Aug. 8, 1997). For experiments 33 μM GST-Q46 was incubated with 150 μg/mL thrombin in assay buffer (150 mM NaCl, 50 mM Tris pH 8.0) and 2 mM CaCl2 for 16 hours at 37° C. Aggregated Q46 was pelleted by centrifugation for 5 minutes at 13,000 rpm in a bench top centrifuge and re-dissolved in the same volume of assay buffer. Test compounds were prepared by titration in DMSO at 11 concentrations from 33 μM to 1 nM. For the RBA, Q46 protein aggregates and test compounds were pre-incubated in assay buffer for 20 minutes at room temperature, in 140 μL/well in a 96-well plate (pp, round bottom). Then, ligand was added in 10 μL/well and incubated for 60 minutes at 37° C. Final assay concentrations were 1 μM to 30 pM test compound, 5 μM Q46 protein (equivalent monomer concentration) and 10 nM ligand [^3H3]MK-3328 (Harrision et al., ACS Med. Chem. Lett., 2 (2011), pp 498-502). Samples were transferred onto GF/B filter plates and washed 2× with 200 μL PBS using a Filtermate Harvester. After drying filter plates for 1 hour at 37° C., the back of the plates was sealed with foil and 30 μl/well scintillation fluid (Packard MicroScint 40) was added, incubated for incubated for 15 minutes in the dark and counted in a TopCount reader. For analysis, replicate data from independent assay plates were normalized towards 0% and 100% inhibition using control wells of vehicle (0% inhibition) and 3 μM unlabelled MK-3328 (100% inhibition). IC50 values were determined with a sigmoidal inhibition model with four variables (top, bottom, slope, IC50) in a global fit using the normalized replicate data.
The molecule `COc1ccc2c(c1)sc1nc(C(=O)Nc3ccc(=O)[nH]n3)cn12` [10-methoxy-N-(6-oxo-1,6-dihydropyridazin-3-yl)-7-thia-2,5-diazatricyclo[6.4.0.0^2,6]dodeca-1(12),3,5,8,10-pentaene-4-carboxamide] came in with an IC50 of less than 100 nM. As to `COc1ccc2c(c1)sc1nc(C(=O)Nc3ccc(=O)[nH]c3)cn12` [10-methoxy-N-(6-oxo-1,6-dihydropyridin-3-yl)-7-thia-2,5-diazatricyclo[6.4.0.0^2,6]dodeca-1(12),3,5,8,10-pentaene-4-carboxamide], the 50% inhibitory concentration (IC50) is less than 100 nM. As to `COc1ccc2c(c1)sc1nc(C(=O)Nc3cnccn3)cn12` [10-methoxy-N-(pyrazin-2-yl)-7-thia-2,5-diazatricyclo[6.4.0.0^2,6]dodeca-1(12),3,5,8,10-pentaene-4-carboxamide], the half-inhibitory concentration (IC50) is less than 100 nM. The value for `COc1ccc2c(n1)sc1nc(C(=O)Nc3cccnc3)cn12` [10-methoxy-N-(pyridin-3-yl)-7-thia-2,5,9-triazatricyclo[6.4.0.0^2,6]dodeca-1(12),3,5,8,10-pentaene-4-carboxamide] was less than 100 nM; that for `COc1ccc2c(c1)sc1nc(C(=O)Nc3cccnc3)cn12` [10-methoxy-N-(pyridin-3-yl)-7-thia-2,5-diazatricyclo[6.4.0.0^2,6]dodeca-1(12),3,5,8,10-pentaene-4-carboxamide] was less than 100 nM; that for `COc1ccc2c(c1)sc1nc(C(=O)NCc3cccnc3)cn12` [10-methoxy-N-(pyridin-3-ylmethyl)-7-thia-2,5-diazatricyclo[6.4.0.0^2,6]dodeca-1(12),3,5,8,10-pentaene-4-carboxamide] was greater than 500 nM. The value for `COc1ccc2c(c1)sc1nc(C(=O)Nc3ccncc3)cn12` [10-methoxy-N-(pyridin-4-yl)-7-thia-2,5-diazatricyclo[6.4.0.0^2,6]dodeca-1(12),3,5,8,10-pentaene-4-carboxamide] was less than 100 nM; that for `COc1ccc2c(c1)sc1nc(C(=O)Nc3cncnc3)cn12` [10-methoxy-N-(pyrimidin-5-yl)-7-thia-2,5-diazatricyclo[6.4.0.0^2,6]dodeca-1(12),3,5,8,10-pentaene-4-carboxamide] was less than 100 nM; that for `COc1ccc2c(c1)sc1nc(C(=O)Nc3ccc(-c4cccnc4)cn3)cn12` [10-methoxy-N-[5-(pyridin-3-yl)pyridin-2-yl]-7-thia-2,5-diazatricyclo[6.4.0.0^2,6]dodeca-1(12),3,5,8,10-pentaene-4-carboxamide] was less than 100 nM. For the molecule `CNC(=O)c1ccc(NC(=O)c2cn3c(n2)sc2cc(OC)ccc23)cn1` [10-methoxy-N-[6-(methylcarbamoyl)pyridin-3-yl]-7-thia-2,5-diazatricyclo[6.4.0.0^2,6]dodeca-1(12),3,5,8,10-pentaene-4-carboxamide], the IC50 was less than 100 nM. The value for `COc1ccc2c(c1)sc1nc(C(=O)N(C)c3cccnc3)cn12` [10-methoxy-N-methyl-N-(pyridin-3-yl)-7-thia-2,5-diazatricyclo[6.4.0.0^2,6]dodeca-1(12),3,5,8,10-pentaene-4-carboxamide] was 100 to 500 nM; that for `CNCc1cccc(NC(=O)c2cn3c(n2)sc2cc(OC)ccc23)c1` [10-methoxy-N-{3-[(methylamino)methyl]phenyl}-7-thia-2,5-diazatricyclo[6.4.0.0^2,6]dodeca-1(8),3,5,9,11-pentaene-4-carboxamide] was less than 100 nM. For `COc1cncc(NC(=O)c2cn3c(n2)sc2ncc(Br)cc23)c1` [11-bromo-N-(5-methoxypyridin-3-yl)-7-thia-2,5,9-triazatricyclo[6.4.0.0^2,6]dodeca-1(12),3,5,8,10-pentaene-4-carboxamide] the value was less than 100 nM; for `COc1cnc2sc3nc(C(=O)Nc4ccc(=O)n(C)n4)cn3c2c1` [11-methoxy-N-(1-methyl-6-oxo-1,6-dihydropyridazin-3-yl)-7-thia-2,5,9-triazatricyclo[6.4.0.0^2,6]dodeca-1(12),3,5,8,10-pentaene-4-carboxamide], less than 100 nM. In turn, `COc1cncc(NC(=O)c2cn3c(n2)sc2ncc(OC)cc23)c1` [11-methoxy-N-(5-methoxypyridin-3-yl)-7-thia-2,5,9-triazatricyclo[6.4.0.0^2,6]dodeca-1(12),3,5,8,10-pentaene-4-carboxamide] showed a half-inhibitory concentration (IC50) of less than 100 nM.

`COc1cncc(NC(=O)c2ccn3c(n2)nc2ccc(-c4cncc(OC)c4)cc23)c1` [N,4-bis(5-methoxypyridin-3-yl)-1,8,10-triazatricyclo[7.4.0.0^2,7]trideca-2(7),3,5,8,10,12-hexaene-11-carboxamide] returned an IC50 of less than 100 nM. `COc1cncc(NC(=O)c2ccn3c(n2)nc2cc(-c4cncc(OC)c4)ccc23)c1` [N,5-bis(5-methoxypyridin-3-yl)-1,8,10-triazatricyclo[7.4.0.0^2,7]trideca-2(7),3,5,8,10,12-hexaene-11-carboxamide] showed an IC50 of less than 100 nM. The value for `COc1ccc2c(c1)sc1nc(C(=O)Nc3ccc4occc4c3)cn12` [N-(1-benzofuran-5-yl)-10-methoxy-7-thia-2,5-diazatricyclo[6.4.0.0^2,6]dodeca-1(12),3,5,8,10-pentaene-4-carboxamide] was less than 100 nM; that for `Cn1cc(NC(=O)c2ccn3c(n2)nc2ccccc23)cnc1=O` [N-(1-methyl-2-oxo-1,2-dihydropyrimidin-5-yl)-1,8,10-triazatricyclo[7.4.0.0^2,7]trideca-2(7),3,5,8,10,12-hexaene-11-carboxamide] was less than 100 nM.

In turn, `Cn1nc(NC(=O)c2ccn3c(n2)nc2ccccc23)ccc1=O` [N-(1-methyl-6-oxo-1,6-dihydropyridazin-3-yl)-1,8,10-triazatricyclo[7.4.0.0^2,7]trideca-2(7),3,5,8,10,12-hexaene-11-carboxamide] registered an IC50 of less than 100 nM.

The molecule `C=CCOc1ccc2c(c1)sc1nc(C(=O)Nc3ccc(=O)n(C)n3)cn12` [N-(1-methyl-6-oxo-1,6-dihydropyridazin-3-yl)-10-(prop-2-en-1-yloxy)-7-thia-2,5-diazatricyclo[6.4.0.0^2,6]dodeca-1(12),3,5,8,10-pentaene-4-carboxamide] came in with an IC50 of less than 100 nM. With `Cn1cc(NC(=O)c2ccn3c(n2)nc2ccccc23)ccc1=O` [N-(1-methyl-6-oxo-1,6-dihydropyridin-3-yl)-1,8,10-triazatricyclo[7.4.0.0^2,7]trideca-2(7),3,5,8,10,12-hexaene-11-carboxamide], the 50% inhibitory concentration (IC50) was 100 to 500 nM. In turn, `COc1cc(NC(=O)c2ccn3c(n2)nc2ccccc23)ccn1` [N-(2-methoxypyridin-4-yl)-1,8,10-triazatricyclo[7.4.0.0^2,7]trideca-2(7),3,5,8,10,12-hexaene-11-carboxamide] yielded a concentration for half-maximal inhibition (IC50) of less than 100 nM. The molecule `COc1nccc(NC(=O)c2ccn3c(n2)nc2ccccc23)c1C#N` [N-(3-cyano-2-methoxypyridin-4-yl)-1,8,10-triazatricyclo[7.4.0.0^2,7]trideca-2(7),3,5,8,10,12-hexaene-11-carboxamide] had an IC50 of less than 100 nM.

`N#Cc1cnccc1NC(=O)c1ccn2c(n1)nc1ccccc12` [N-(3-cyanopyridin-4-yl)-1,8,10-triazatricyclo[7.4.0.0^2,7]trideca-2(7),3,5,8,10,12-hexaene-11-carboxamide] showed an IC50 of less than 100 nM. The value for `COc1ccc2c(c1)nc1nc(C(=O)Nc3ccncc3C#N)ccn12` [N-(3-cyanopyridin-4-yl)-5-methoxy-1,8,10-triazatricyclo[7.4.0.0^2,7]trideca-2(7),3,5,8,10,12-hexaene-11-carboxamide] was less than 100 nM.
